PubChem BioAssay AID1963967 (Molecular Pharmacology Branch, DTP, NCI, 2024)

System: 855422-203-R-J1-PDC spheroids with HUVEC/MSC, viability
Assay: Anticancer human tumor 855422-203-R-J1-PDC patient-derived bladder carcinoma cell line growth inhibition [PI3K]
Settings: for IC50: curve of first compound; for viability, T/C: stronger effect = lower value
Source text: Combinatorial screen of targeted agents with the PI3K inhibitors inavolisib, alpelisib, duvelisib, and copanlisib in multi-cell type tumor spheroids
A high-throughput screen of multi-cell type tumor spheroids was designed to identify active combinations of targeted small molecules and PI3K pathway inhibitors. Complex spheroids include a stromal component modeled by human endothelial cells (HUVEC) and fibroblasts modeled by human mesenchymal stem cells (MSCs). The concentration ranges selected for each drug and investigational agent were based upon clinically achievable concentrations if the clinical Cmax of the agent was known.
Compounds. The drugs and investigational agents: inavolisib (NSC800729), alpelisib (NSC765974), duvelisib (NSC772469), copanlisib (NSC816437), ipatasertib (NSC767898), afuresertib (NSC778305), talazoparib (NSC767125), sapanisertib (NSC764658), selumetinib (NSC741078), tovorafenib (DAY101, NSC766906), vemurafenib (NSC761431), ravoxertinib (NSC781343), sotorasib (NSC818433), MRTX1133 (NSC 836407), abemaciclib (NSC 768073), palbociclib (NSC758247), venetoclax (NSC 766270), SY5609 (NSC837396), enzalutamide (NSC755605), and darolutamide (NSC825331), were obtained from the National Cancer Institute (NCI) Developmental Therapeutics Program Chemical Repository. The FDA-approved anticancer drug set is available from the NCI Developmental Therapeutics Program. […] The stock solutions were prepared in dimethyl sulfoxide (DMSO, Sigma-Aldrich, St. Louis, MO, cat. D2650) at 800-fold the tested concentration and stored at -70 degrees C prior to their use. All drugs and investigational agents were tested over a range starting from a high concentration at or near the clinical Cmax and decreasing in half-log increments. If the clinical Cmax for an agent had not been determined, the highest concentration tested was 10 microM.
Cell Culture. All cells were maintained in an incubator at 37 degrees C and 5% CO2 with 95% humidity. The PDC lines were cultured according to standard operating procedures established by the NCI PDMR (https://pdmr.cancer.gov/sops/default.htm). All PDCs were thawed and cultured in Matrigel-coated flasks prepared with a working solution of 1X Ham's F-12 nutrient mix, without supplementation (Invitrogen, Waltham, MA, cat. 11765054), 100 U/mL penicillin-streptomycin (Invitrogen, cat. 15140122), and 2.5% Matrigel (Corning Inc., Corning, NY, cat. 354248) for the first three passages. The 354836-022-R-J1-PDC, 475296-252-R-J1-PDC, and 997726-040-R-J2-PDC lines were cultured in 6A media, which includes advanced DMEM/F-12 (Thermo Fisher Scientific, cat. 12634028), 10 mM HEPES (Thermo Fisher Scientific, cat. 15630080), 1X GlutaMAX supplement (Thermo Fisher Scientific, cat. 35050061), 0.1 mg/mL primocin (InvivoGen, San Diego, CA, cat. ant-pm-2), 10% defined fetal bovine serum, heat inactivated (HyClone Laboratories Inc., Logan, UT, cat. SH30070.03HI), 50% L-WRN conditioned media (ATCC, cat. CRL-3276), 1.25 mM N-Acetyl-L-cysteine (Sigma-Aldrich, cat. A9165), 10 mM nicotinamide (Sigma-Aldrich, cat. N0636), 1X B-27 supplement (Thermo Fisher Scientific, cat. 17504044), 1X N-2 supplement (Thermo Fisher Scientific, cat. 17502048), and 10 microM Y-27632 dihydrochloride (Tocris Bioscience, Bristol, United Kingdom, cat. 1254). The 624824-186-R-J2-PDC line was cultured in 6C/Colon 1B media, which includes all 6A media components plus 50 ng/mL human EGF recombinant protein (Thermo Fisher Scientific, cat. PHG0311). […]

[1] = second compound 0.00316 µM, first compound 0.0316 µM
[2] = second compound 0.00316 µM, first compound 0.1 µM
[3] = second compound 0.00316 µM, first compound 0.316 µM
[4] = second compound 0.00316 µM, first compound 1 µM
[5] = second compound 0.00316 µM, first compound 3.16 µM
[6] = second compound 0.00316 µM, first compound 10 µM
[7] = second compound 0.01 µM, first compound 0.0316 µM
[8] = second compound 0.01 µM, first compound 0.1 µM
[9] = second compound 0.01 µM, first compound 0.316 µM
[10] = second compound 0.01 µM, first compound 1 µM
[11] = second compound 0.01 µM, first compound 3.16 µM
[12] = second compound 0.01 µM, first compound 10 µM
[13] = second compound 0.0316 µM, first compound 0.0316 µM
[14] = second compound 0.0316 µM, first compound 0.1 µM
[15] = second compound 0.0316 µM, first compound 0.316 µM
[16] = second compound 0.0316 µM, first compound 1 µM
[17] = second compound 0.0316 µM, first compound 3.16 µM
[18] = second compound 0.0316 µM, first compound 10 µM
[19] = second compound 0.1 µM, first compound 0.0316 µM
[20] = second compound 0.1 µM, first compound 0.1 µM
[21] = second compound 0.1 µM, first compound 0.316 µM
[22] = second compound 0.1 µM, first compound 1 µM
[23] = second compound 0.1 µM, first compound 3.16 µM
[24] = second compound 0.1 µM, first compound 10 µM
[25] = second compound 0.316 µM, first compound 0.0316 µM
[26] = second compound 0.316 µM, first compound 0.1 µM
[27] = second compound 0.316 µM, first compound 0.316 µM
[28] = second compound 0.316 µM, first compound 1 µM
[29] = second compound 0.316 µM, first compound 3.16 µM
[30] = second compound 0.316 µM, first compound 10 µM
[31] = second compound 1 µM, first compound 0.0316 µM
[32] = second compound 1 µM, first compound 0.1 µM
[33] = second compound 1 µM, first compound 0.316 µM
[34] = second compound 1 µM, first compound 1 µM
[35] = second compound 1 µM, first compound 3.16 µM
[36] = second compound 1 µM, first compound 10 µM
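Further: agents incubated with spheroids for one week before read-out.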
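Wherever viability, T/C is given: 100% = DMSO vehicle-treated control wells.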

CC(C)NCC(C(=O)N1CCN(c2ncnc3c2C(C)CC3O)CC1)c1ccc(Cl)cc1 (stereo unspecified) + COc1c(OCCCN2CCOCC2)ccc2c3n(c(=NC(=O)c4cnc(N)nc4)nc12)CCN3
IC50 (second compound 0.00316 µM): 1.13 µM
IC50 (second compound 0.01 µM): 1.92 µM
IC50 (second compound 0.0316 µM): 0.969 µM
IC50 (second compound 0.1 µM): < 0.0316 µM
IC50 (second compound 0.316 µM): < 0.0316 µM
IC50 (second compound 1 µM): < 0.0316 µM
viability, T/C [1]: 108%
viability, T/C [2]: 62%
viability, T/C [3]: 71.9%
viability, T/C [4]: 57.4%
viability, T/C [5]: 41%
viability, T/C [6]: 18.8%
viability, T/C [7]: 79%
viability, T/C [8]: 73.3%
viability, T/C [9]: 67%
viability, T/C [10]: 62%
viability, T/C [11]: 42%
viability, T/C [12]: 15.5%
viability, T/C [13]: 63.3%
viability, T/C [14]: 64.3%
viability, T/C [15]: 55.6%
viability, T/C [16]: 51.3%
viability, T/C [17]: 23%
viability, T/C [18]: 12.6%
viability, T/C [19]: 30.3%
viability, T/C [20]: 30.1%
viability, T/C [21]: 35.3%
viability, T/C [22]: 24.7%
viability, T/C [23]: 15.5%
viability, T/C [24]: 6.96%
viability, T/C [25]: 11.1%
viability, T/C [26]: 10.8%
viability, T/C [27]: 11.4%
viability, T/C [28]: 10.5%
viability, T/C [29]: 6%
viability, T/C [30]: 3.59%
viability, T/C [31]: 5.39%
viability, T/C [32]: 4.74%
viability, T/C [33]: 4.07%
viability, T/C [34]: 4.44%
viability, T/C [35]: 2.79%
viability, T/C [36]: 1.58%

CNC(=O)c1ccc(N2C(=S)N(c3ccc(C#N)c(C(F)(F)F)c3)C(=O)C2(C)C)cc1F + CC(Nc1ccc2c(c1)OCCn1cc(N3C(=O)OCC3C(F)F)nc1-2)C(N)=O
IC50 (second compound 0.00316 µM): > 10 µM
IC50 (second compound 0.01 µM): > 10 µM
IC50 (second compound 0.0316 µM): > 10 µM
IC50 (second compound 0.1 µM): > 10 µM
IC50 (second compound 0.316 µM): 0.265 µM
IC50 (second compound 1 µM): < 0.0316 µM
viability, T/C [1]: 106%
viability, T/C [2]: 83.8%
viability, T/C [3]: 95.8%
viability, T/C [4]: 81.2%
viability, T/C [5]: 72.9%
viability, T/C [6]: 65.4%
viability, T/C [7]: 102%
viability, T/C [8]: 91.2%
viability, T/C [9]: 90%
viability, T/C [10]: 77.3%
viability, T/C [11]: 79%
viability, T/C [12]: 72.5%
viability, T/C [13]: 86.6%
viability, T/C [14]: 82.1%
viability, T/C [15]: 79.9%
viability, T/C [16]: 66.6%
viability, T/C [17]: 72.8%
viability, T/C [18]: 64.3%
viability, T/C [19]: 76.9%
viability, T/C [20]: 76.7%
viability, T/C [21]: 83.3%
viability, T/C [22]: 63.1%
viability, T/C [23]: 62%
viability, T/C [24]: 52.8%
viability, T/C [25]: 51.4%
viability, T/C [26]: 46.9%
viability, T/C [27]: 53.6%
viability, T/C [28]: 49.1%
viability, T/C [29]: 52.7%
viability, T/C [30]: 43.1%
viability, T/C [31]: 37.2%
viability, T/C [32]: 36.4%
viability, T/C [33]: 37%
viability, T/C [34]: 41.3%
viability, T/C [35]: 38.5%
viability, T/C [36]: 33.8%

CC(Cn1ccc(-c2ccc(C#N)c(Cl)c2)n1)NC(=O)c1cc(C(C)O)[nH]n1 (stereo unspecified) + CC(Nc1ncnc2nc[nH]c12)c1cc2cccc(Cl)c2c(=O)n1-c1ccccc1
IC50 (second compound 0.0316 µM): > 10 µM
IC50 (second compound 0.1 µM): > 10 µM
IC50 (second compound 0.316 µM): > 10 µM
IC50 (second compound 1 µM): > 10 µM
IC50 (second compound 3.16 µM): > 10 µM
IC50 (second compound 10 µM): > 10 µM
viability, T/C [13]: 105%
viability, T/C [14]: 93.3%
viability, T/C [15]: 113%
viability, T/C [16]: 98.3%
viability, T/C [17]: 91.6%
viability, T/C [18]: 67.8%
viability, T/C [19]: 105%
viability, T/C [20]: 107%
viability, T/C [21]: 106%
viability, T/C [22]: 105%
viability, T/C [23]: 90.3%
viability, T/C [24]: 82.8%
viability, T/C [25]: 97%
viability, T/C [26]: 104%
viability, T/C [27]: 96.6%
viability, T/C [28]: 112%
viability, T/C [29]: 89.9%
viability, T/C [30]: 77.4%
viability, T/C [31]: 92.9%
viability, T/C [32]: 108%
viability, T/C [33]: 107%
viability, T/C [34]: 103%
viability, T/C [35]: 95.5%
viability, T/C [36]: 95.7%
viability, T/C (second compound 3.16 µM, first compound 0.0316 µM): 97.3%
viability, T/C (second compound 3.16 µM, first compound 0.1 µM): 91.1%
viability, T/C (second compound 3.16 µM, first compound 0.316 µM): 108%
viability, T/C (second compound 3.16 µM, first compound 1 µM): 101%
viability, T/C (second compound 3.16 µM, first compound 3.16 µM): 90.4%
viability, T/C (second compound 3.16 µM, first compound 10 µM): 78.7%
viability, T/C (second compound 10 µM, first compound 0.0316 µM): 88.5%
viability, T/C (second compound 10 µM, first compound 0.1 µM): 84.9%
viability, T/C (second compound 10 µM, first compound 0.316 µM): 89.5%
viability, T/C (second compound 10 µM, first compound 1 µM): 82.3%
viability, T/C (second compound 10 µM, first compound 3.16 µM): 74.5%
viability, T/C (second compound 10 µM, first compound 10 µM): 70%
